From patent US20250034159A1, “INHIBITORS OF EPIDERMAL GROWTH FACTOR RECEPTOR” (ORIC Pharmaceuticals, Inc., priority 2021, published 2025)
Like-named read-outs stand apart in the source and are kept apart here.

Experiments:
[1] = molecular target: recombinant human EGFR exon 19 deletion/C797S double mutant protein (Homo sapiens (Human), UniProt P00533, C797S/DEL746-750); assay: Biological Activity Assay C: biochemical assay against EGFR exon 19 deletion/C797S protein (EGFR d19/CS)
Method in brief: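 Compounds were tested as 16-point serial dilutions (final DMSO 2.5%) with a Phosphosens peptide sensor/ATP working solution (40 uM/4 mM). The signal was read kinetically over 90 cycles at 120 s intervals. IC50s came from 4-parameter fits of per-well slopes.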

[2] = test system: Ba/F3_EGFR WT cells; assay: Biological Activity Assay D: BaF3 cell proliferation assay, EGFR wild-type (BaF3 WT); format: cell-based; conditions: Ba/F3 EGFR, read-out: BaF3 WT IC50
[3] = test system: BaF3_EGFR LR/CS cells; assay: Biological Activity Assay D: BaF3 cell proliferation assay, EGFR L858R/C797S mutant (BaF3 LR/CS); format: cell-based; conditions: Ba/F3 EGFR, read-out: BaF3 LR/CS IC50
[4] = test system: BaF3_EGFR d19/CS cells; assay: Biological Activity Assay D: BaF3 cell proliferation assay, EGFR exon 19 deletion/C797S (BaF3 d19/CS); format: cell-based; conditions: Ba/F3 EGFR, read-out: BaF3 d19/CS IC50
[5] = Ba/F3_EGFR WT cells, ~72 hours, CellTiter-Glo
[6] = BaF3_EGFR LR/CS cells, ~72 hours, CellTiter-Glo
[7] = BaF3_EGFR d19/CS cells, ~72 hours, CellTiter-Glo

recombinant human EGFR exon 19 deletion/C797S double mutant protein, sequence (P00533 other isoform, or with tags, fused parts or gaps C797S/del 1-668/del 746-750 limits assumed): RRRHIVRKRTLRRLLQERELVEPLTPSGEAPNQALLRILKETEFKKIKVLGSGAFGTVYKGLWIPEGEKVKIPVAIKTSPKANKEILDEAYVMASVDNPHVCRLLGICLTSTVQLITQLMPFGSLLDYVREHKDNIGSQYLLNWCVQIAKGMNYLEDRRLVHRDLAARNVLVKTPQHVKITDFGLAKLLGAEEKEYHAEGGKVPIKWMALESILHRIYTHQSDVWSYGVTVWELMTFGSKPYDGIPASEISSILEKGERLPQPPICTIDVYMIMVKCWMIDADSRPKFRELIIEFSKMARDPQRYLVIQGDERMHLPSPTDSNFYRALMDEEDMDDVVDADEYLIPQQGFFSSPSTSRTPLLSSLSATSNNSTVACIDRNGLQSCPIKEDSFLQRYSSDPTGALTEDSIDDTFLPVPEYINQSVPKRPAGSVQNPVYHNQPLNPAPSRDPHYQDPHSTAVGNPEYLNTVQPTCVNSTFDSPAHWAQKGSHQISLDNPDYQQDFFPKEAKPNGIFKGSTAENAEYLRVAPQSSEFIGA

Compound | IC50 [1] [nM] | IC50 [2, 5] [nM] | IC50 [3, 6] [nM] | IC50 [4, 7] [nM] | IC50 ([2]; 72 h) [nM] | IC50 ([3]; 72 h) [nM] | IC50 ([4]; 72 h) [nM]
Cc1cccnc1-c1cc2c(-c3cn(C4CS(=O)(=O)C4)nc3-c3ccc(F)cc3)ncnc2o1 [Example 241, 3-{3-(4-fluorophenyl)-4-[6-(3-methylpyridin-2-yl)furo[2,3-d]pyrimidin-4-yl]-1H-pyrazol-1-yl}-1λ6-thietane-1,1-dione] | 1.2 | 1520 | 189 | 131 |  |  | 
Cc1nn(C)cc1-c1cc2c(-c3cn(C4CS(=O)(=O)C4)nc3-c3ccc(F)cc3)ncnc2o1 [Example 242, 3-{4-[6-(1,3-dimethyl-1H-pyrazol-4-yl)furo[2,3-d]pyrimidin-4-yl]-3-(4-fluorophenyl)-1H-pyrazol-1-yl}-16-thietane-1,1-dione] | 0.18 | 533 | 8.34 | 10.8 |  |  | 
Cc1cc(-c2cc3c(-c4cn(C5CS(=O)(=O)C5)nc4-c4ccc(F)cc4)ncnc3o2)n(C)n1 [Example 243, 3-{4-[6-(1,3-dimethyl-1H-pyrazol-5-yl)furo[2,3-d]pyrimidin-4-yl]-3-(4-fluorophenyl)-1H-pyrazol-1-yl}-16-thietane-1,1-dione] | 0.37 | 1200 | 93 | 87.8 |  |  | 
Cn1cc(-c2cc3c(-c4cn(C5CS(=O)(=O)C5)nc4-c4ccc(F)cc4)ncnc3o2)nn1 [Example 244, 3-{3-(4-fluorophenyl)-4-[6-(1-methyl-1H-1,2,3-triazol-4-yl)furo[2,3-d]pyrimidin-4-yl]-1H-pyrazol-1-yl}-16-thietane-1,1-dione] | 0.55 | 1040 | 91.7 | 96.2 |  |  | 
Cc1ccccc1-c1cc2c(-c3cn(C4CS(=O)(=O)C4)nc3-c3ccc(F)cc3)ncnc2o1 [Example 245, 3-{3-(4-fluorophenyl)-4-[6-(2-methylphenyl)furo[2,3-d]pyrimidin-4-yl]-1H-pyrazol-1-yl}-16-thietane-1,1-dione] | 0.31 | 3210 | 82.1 | 69.9 |  |  | 
O=S1(=O)CC(n2cc(-c3ncnc4oc(-c5nccs5)cc34)c(-c3ccc(F)cc3)n2)C1 [Example 248, 3-{3-(4-fluorophenyl)-4-[6-(1,3-thiazol-2-yl)furo[2,3-d]pyrimidin-4-yl]-1H-pyrazol-1-yl}-16-thietane-1,1-dione] | 0.42 | 2550 | 100 | 92.7 |  |  | 
Cc1ncccc1-c1cc2c(-c3cn(C4CS(=O)(=O)C4)nc3-c3ccc(F)cc3)ncnc2o1 [Example 249, 3-{3-(4-fluorophenyl)-4-[6-(2-methylpyridin-3-yl)furo[2,3-d]pyrimidin-4-yl]-1H-pyrazol-1-yl}-1λ6-thietane-1,1-dione] | 0.25 | 4510 | 103 | 104 |  |  | 
Cn1cc(-c2cc3c(-c4cn(C5CS(=O)(=O)C5)nc4-c4ccc(F)cc4)ncnc3o2)cn1 [Example 250, 3-{3-(4-fluorophenyl)-4-[6-(1-methyl-1H-pyrazol-4-yl)furo[2,3-d]pyrimidin-4-yl]-1H-pyrazol-1-yl}-16-thietane-1,1-dione] | 0.05 | 696 | 3.54 | 9.26 |  |  | 
Cc1nn(C)cc1-c1cc2c(-c3cn(CC(C)(C)O)nc3-c3ccc(F)cc3)ncnc2o1 [Example 251, 1-{4-[6-(1,3-dimethyl-1H-pyrazol-4-yl)furo[2,3-d]pyrimidin-4-yl]-3-(4-fluorophenyl)-1H-pyrazol-1-yl}-2-methylpropan-2-ol] | 0.2 | 745 | 8.08 | 12.8 |  |  | 
Cc1nn(C)c(C)c1-c1cc2c(-c3cn(CC(C)(C)O)nc3-c3ccc(F)cc3)ncnc2o1 [Example 252, 1-{3-(4-fluorophenyl)-4-[6-(1,3,5-trimethyl-1H-pyrazol-4-yl)furo[2,3-d]pyrimidin-4-yl]-1H-pyrazol-1-yl}-2-methylpropan-2-ol] | 0.09 | 630 | 8.87 | 21.9 |  |  | 
Cc1cccc(-c2cc3c(-c4cn(C5CS(=O)(=O)C5)nc4-c4ccc(F)cc4)ncnc3o2)n1 [Example 253, 3-{3-(4-fluorophenyl)-4-[6-(6-methylpyridin-2-yl)furo[2,3-d]pyrimidin-4-yl]-1H-pyrazol-1-yl}-16-thietane-1,1-dione] | 0.2 |  |  |  | 7740 | 51.6 | 87.7
Cn1cnc(-c2cc3c(-c4cn(CC(C)(C)O)nc4-c4ccc(F)cc4)ncnc3o2)c1 [Example 254, 1-{3-(4-fluorophenyl)-4-[6-(1-methyl-1H-imidazol-4-yl)furo[2,3-d]pyrimidin-4-yl]-1H-pyrazol-1-yl}-2-methylpropan-2-ol] | 0.11 | 442 | 3.05 | 5.01 |  |  | 
CC(C)(O)Cn1cc(-c2ncnc3oc(-c4cccnc4)cc23)c(-c2ccc(F)cc2)n1 [Example 255, 1-{3-(4-fluorophenyl)-4-[6-(pyridin-3-yl)furo[2,3-d]pyrimidin-4-yl]-1H-pyrazol-1-yl}-2-methylpropan-2-ol] | 0.47 | 1700 | 51 | 32.4 |  |  | 
Cn1cc(-c2cc3c(-c4cn([C@H]5C[C@@H](S(C)(=O)=O)C5)nc4-c4ccc(F)cc4)ncnc3o2)cn1 [Example 256, 4-{3-(4-fluorophenyl)-1-[(1s,3s)-3-(methanesulfonyl)cyclobutyl]-1H-pyrazol-4-yl}-6-(1-methyl-1H-pyrazol-4-yl)furo[2,3-d]pyrimidine] | 0.19 | 403 | 5.23 | 11.2 |  |  | 
CC(C)(O)Cn1cc(-c2ncnc3oc(-c4ccccn4)cc23)c(-c2ccc(F)cc2)n1 [Example 257, 1-{3-(4-fluorophenyl)-4-[6-(pyridin-2-yl)furo[2,3-d]pyrimidin-4-yl]-1H-pyrazol-1-yl}-2-methylpropan-2-ol] | 0.2 | 1010 | 18.2 | 20.8 |  |  | 
Cc1c(-c2cc3c(-c4cn(CC(C)(C)O)nc4-c4ccc(F)cc4)ncnc3o2)cnn1C [Example 258, 1-{4-[6-(1,5-dimethyl-1H-pyrazol-4-yl)furo[2,3-d]pyrimidin-4-yl]-3-(4-fluorophenyl)-1H-pyrazol-1-yl}-2-methylpropan-2-ol] | 0.16 | 976 | 12.7 | 18.5 |  |  | 
Cn1cnc(-c2cc3c(-c4cn([C@H]5C[C@@H](S(C)(=O)=O)C5)nc4-c4ccc(F)cc4)ncnc3o2)c1 [Example 259, 4-{3-(4-fluorophenyl)-1-[(1s,3s)-3-(methanesulfonyl)cyclobutyl]-1H-pyrazol-4-yl}-6-(1-methyl-1H-imidazol-4-yl)furo[2,3-d]pyrimidine] | 0.1 | 498 | 4.44 | 14.4 |  |  | 
CC(=O)N1C=C(c2cc3c(-c4cn(CC(C)(C)O)nc4-c4ccc(F)cc4)ncnc3o2)CCC1 [Example 260, 1-[5-{4-[3-(4-fluorophenyl)-1-(2-hydroxy-2-methylpropyl)-1H-pyrazol-4-yl]furo[2,3-d]pyrimidin-6-yl}-3,4-dihydropyridin-1 (2H)-yl]ethan-1-one] | 0.35 | 1920 | 17 | 33 |  |  | 
Cn1cc(-c2cc3c(-c4cn(CC(C)(C)O)nc4-c4ccc(F)cc4)ncnc3o2)cn1 [Example 261, 1-{3-(4-fluorophenyl)-4-[6-(1-methyl-1H-pyrazol-4-yl)furo[2,3-d]pyrimidin-4-yl]-1H-pyrazol-1-yl}-2-methylpropan-2-ol] | 0.206 | 550 | 4.53 | 10.1 |  |  | 
CC(C)(O)Cn1cc(-c2ncnc3oc(-c4ccccc4Cl)cc23)c(-c2ccc(F)cc2)n1 [Example 262, 1-{4-[6-(2-chlorophenyl)furo[2,3-d]pyrimidin-4-yl]-3-(4-fluorophenyl)-1H-pyrazol-1-yl}-2-methylpropan-2-ol] | 0.396 | 4060 | 78.2 | 47 |  |  | 
Cn1cnc(-c2cc3c(-c4cn(CCC(F)F)nc4-c4ccc(F)cc4)ncnc3o2)c1 [Example 263, 4-[1-(3,3-difluoropropyl)-3-(4-fluorophenyl)-1H-pyrazol-4-yl]-6-(1-methyl-1H-imidazol-4-yl)furo[2,3-d]pyrimidine] | 0.153 | 235 | 2.36 | 6.17 |  |  | 
Cn1cnc(-c2cc3c(-c4cn([C@H]5C[C@@H](F)C5)nc4-c4ccc(F)cc4)ncnc3o2)c1 [Example 264, 4-{1-[(1s,3s)-3-fluorocyclobutyl]-3-(4-fluorophenyl)-1H-pyrazol-4-yl}-6-(1-methyl-1H-imidazol-4-yl)furo[2,3-d]pyrimidine] | 0.135 | 448 | 6.54 | 8.85 |  |  | 
Cn1cnc(-c2cc3c(-c4cn(CCC#N)nc4-c4ccc(F)cc4)ncnc3o2)c1 [Example 265, 3-{3-(4-fluorophenyl)-4-[6-(1-methyl-1H-imidazol-4-yl)furo[2,3-d]pyrimidin-4-yl]-1H-pyrazol-1-yl}propanenitrile] | 0.078 | 69.9 | 1.43 | 1.46 |  |  | 
